Reference: patent publication US7632918B2, “Semi-synthetic glycopeptides with antibiotic activity” (Novartis Vaccines and Diagnostics, Inc., priority 2005, dated 2009)
Values after ≈ are worked out from the molar mass of the structure shown.

Columns and labels:
Assay in all cases: MIC, broth microdilution in Meuller-Hinton broth (NCCLS)
533 S. epidermidis = assay type: cell-based, Staphylococus epidermidis; conditions: clinical isolate
Procedure: (§1) Antibacterial activity in vitro was investigated by broth microdilution method in Meuller-Hinton broth as recommended by NCCLS. All strains tested were clinical isolates either sensitive or resistant to natural glycopeptides. Results are reported in the tables as MIC (minimal inhibitory concentration) in μg/ml.
(§2) The glycopeptides were tested against a variety of strains, indicated below, including Staphylococus epidermidis, Staphylococus haemolyticus, glycopeptides-intermediate Staphylococus aureus (GISA), glocopeptide-sensitive Enterococcus faecalis (GSE), and glocopeptide-resistant Enterococcus faecalis (GRE). Results are shown in the table as minimum inhibitory concentration (MIC) in units of μg/ml: […]

602 S. haemolyticus = assay type: cell-based, Staphylococus haemolyticus; conditions: clinical isolate
Procedure: as §1, §2

3797 S. aureus (GISA) = assay type: cell-based, Staphylococus aureus; conditions: glycopeptides-intermediate clinical isolate
Procedure: as §1, §2

3798 S. aureus (GISA) = assay type: cell-based, Staphylococus aureus; conditions: glycopeptides-intermediate clinical isolate
Procedure: as §1, §2

568 E. faecium (GSE) = assay type: cell-based; conditions: glycopeptide-sensitive clinical isolate
Procedure: as §1, §2

569 E. faecium (GRE) = assay type: cell-based; conditions: glycopeptide-resistant clinical isolate
Procedure: as §1, §2

559 E. faecalis (GSE) = assay type: cell-based, Enterococcus faecalis; conditions: glycopeptide-sensitive clinical isolate
Procedure: as §1, §2

560 E. faecalis (GRE) = assay type: cell-based, Enterococcus faecalis; conditions: glycopeptide-resistant clinical isolate
Procedure: as §1, §2

Row | Compound | MIC 533 S. epidermidis (533 S. epidermidis) [µg/mL] | MIC 602 S. haemolyticus (602 S. haemolyticus) [µg/mL] | MIC 3797 S. aureus (GISA) (3797 S. aureus (GISA)) [µg/mL] | MIC 3798 S. aureus (GISA) (3798 S. aureus (GISA)) [µg/mL] | MIC 568 E. faecium (GSE) (568 E. faecium (GSE)) [µg/mL] | MIC 569 E. faecium (GRE) (569 E. faecium (GRE)) [µg/mL] | MIC 559 E. faecalis (GSE) (559 E. faecalis (GSE)) [µg/mL] | MIC 560 E. faecalis (GRE) (560 E. faecalis (GRE)) [µg/mL]
1 | CNC(CC(C)C)C(=O)NC1C(=O)NC(CC(N)=O)C(=O)NC2C(=O)NC3C(=O)NC(C(=O)NC(C(=O)NC4C5CC6CC(C5)CC4C6)c4cc(O)cc(O)c4-c4cc3ccc4O)C(OC3CC(C)(N)C(O)C(C)O3)c3ccc(cc3)Oc3cc2cc(c3OC2OC(CO)C(O)C(O)C2OC2CC(C)(N)C(O)C(C)O2)Oc2ccc(cc2Cl)C1O (centres unmarked) [Compound 213, 2-adamantanamino eremomycin] | 0.25 (≈ 0.148 µM) | 0.25 (≈ 0.148 µM) | 1 (≈ 0.591 µM) | 2 (≈ 1.18 µM) | 0.5 (≈ 0.296 µM) | 4 (≈ 2.37 µM) | 0.5 (≈ 0.296 µM) | 8 (≈ 4.73 µM)
2 | CCCCCCCCOc1ccc(CNCC(=O)NC2(C)CC(OC3C(Oc4c5cc6cc4Oc4ccc(cc4Cl)C(O)C(NC(=O)C(CC(C)C)NC)C(=O)NC(CC(N)=O)C(=O)NC6C(=O)NC4C(=O)NC(C(=O)NC(C(=O)O)c6cc(O)cc(O)c6-c6cc4ccc6O)C(OC4CC(C)(N)C(O)C(C)O4)c4ccc(cc4)O5)OC(CO)C(O)C3O)OC(C)C2O)cc1 (centres unmarked) [Compound 214] | 1 (≈ 0.545 µM) | 1 (≈ 0.545 µM) | 4 (≈ 2.18 µM) | 4 (≈ 2.18 µM) | 0.5 (≈ 0.273 µM) | 8 (≈ 4.36 µM) | 1 (≈ 0.545 µM) | 8 (≈ 4.36 µM)
3 | CCCCOc1ccc(CNCC(=O)NC2(C)CC(OC3C(Oc4c5cc6cc4Oc4ccc(cc4Cl)C(O)C4NC(=O)C(NC(=O)C6NC(=O)C(CC(N)=O)NC(=O)C(NC(=O)C(CC(C)C)NC)C(O)c6ccc(c(Cl)c6)O5)c5ccc(O)c(c5)-c5c(O)cc(O)cc5C(C(=O)O)NC4=O)OC(CO)C(O)C3O)OC(C)C2O)cc1 (centres unmarked) [Compound 218] | 0.13 (≈ 0.0779 µM) | 0.13 (≈ 0.0779 µM) | 0.5 (≈ 0.3 µM) | 1 (≈ 0.599 µM) | 0.5 (≈ 0.3 µM) | >64 | 1 (≈ 0.599 µM) | >64
4 | CNC(CC(C)C)C(=O)NC1C(=O)NC(CC(N)=O)C(=O)NC2C(=O)NC3C(=O)NC(C(=O)NC(C(=O)O)c4cc(O)cc(O)c4-c4cc3ccc4O)C(OC3CC(C)(N)C(O)C(C)O3)c3ccc(cc3)Oc3cc2cc(c3OC2OC(CO)C(O)C(O)C2OC2CC(C)(NC(=O)CNCc3ccc(OCc4ccccc4)cc3)C(O)C(C)O2)Oc2ccc(cc2Cl)C1O (centres unmarked) [Compound 223] | 2 (≈ 1.1 µM) | 4 (≈ 2.21 µM) | 8 (≈ 4.42 µM) | 8 (≈ 4.42 µM) | 2 (≈ 1.1 µM) | 16 (≈ 8.83 µM) | 2 (≈ 1.1 µM) | 64 (≈ 35.3 µM)
5 | CNC(CC(C)C)C(=O)NC1C(=O)NC(CC(N)=O)C(=O)NC2C(=O)NC3C(=O)NC(C(=O)NC(C(=O)O)c4cc(O)cc(O)c4-c4cc3ccc4O)C(OC3CC(C)(N)C(O)C(C)O3)c3ccc(cc3)Oc3cc2cc(c3OC2OC(CO)C(O)C(O)C2OC2CC(C)(NC(=O)CNCc3c[nH]c4ccc(OCc5ccccc5)cc34)C(O)C(C)O2)Oc2ccc(cc2Cl)C1O (centres unmarked) [Compound 224] | 2 (≈ 1.08 µM) | 2 (≈ 1.08 µM) | 8 (≈ 4.32 µM) | 8 (≈ 4.32 µM) | 1 (≈ 0.54 µM) | 16 (≈ 8.65 µM) | 2 (≈ 1.08 µM) | >64
6 | CNC(CC(C)C)C(=O)NC1C(=O)NC(CC(N)=O)C(=O)NC2C(=O)NC3C(=O)NC(C(=O)NC(C(=O)O)c4cc(O)cc(O)c4-c4cc3ccc4O)C(OC3CC(C)(N)C(O)C(C)O3)c3ccc(cc3)Oc3cc2cc(c3OC2OC(CO)C(O)C(O)C2OC2CC(C)(NC(=O)CNCc3cn(Cc4ccccc4)c4ccccc34)C(O)C(C)O2)Oc2ccc(cc2Cl)C1O (centres unmarked) [Compound 225] | 1 (≈ 0.545 µM) | 2 (≈ 1.09 µM) | 4 (≈ 2.18 µM) | 4 (≈ 2.18 µM) | 4 (≈ 2.18 µM) | 16 (≈ 8.72 µM) | 2 (≈ 1.09 µM) | 64 (≈ 34.9 µM)
7 | CNC(CC(C)C)C(=O)NC1C(=O)NC(CC(N)=O)C(=O)NC2C(=O)NC3C(=O)NC(C(=O)NC(C(=O)O)c4cc(O)cc(O)c4-c4cc3ccc4O)C(OC3CC(C)(N)C(O)C(C)O3)c3ccc(cc3)Oc3cc2cc(c3OC2OC(CO)C(O)C(O)C2OC2CC(C)(NC(=O)[C@@H](N)Cc3ccc(OCc4ccccc4)cc3)C(O)C(C)O2)Oc2ccc(cc2Cl)C1O (some centres unmarked) [Compound 228] | 4 (≈ 2.21 µM) | 4 (≈ 2.21 µM) | 16 (≈ 8.83 µM) | 16 (≈ 8.83 µM) | 2 (≈ 1.1 µM) | >64 | 2 (≈ 1.1 µM) | >64
8 | CNC(CC(C)C)C(=O)NC1C(=O)NC(CC(N)=O)C(=O)NC2C(=O)NC3C(=O)NC(C(=O)NC(C(=O)O)c4cc(O)cc(O)c4-c4cc3ccc4O)C(OC3CC(C)(N)C(O)C(C)O3)c3ccc(cc3)Oc3cc2cc(c3OC2OC(CO)C(O)C(O)C2OC2CC(C)(NC(=O)[C@H](N)Cc3ccccc3)C(O)C(C)O2)Oc2ccc(cc2Cl)C1O (some centres unmarked) [Compound 229] | 1 (≈ 0.586 µM) | 1 (≈ 0.586 µM) | >32 | >32 | 0.25 (≈ 0.147 µM) | >64 | 0.5 (≈ 0.293 µM) | >64
9 | CNC(CC(C)C)C(=O)NC1C(=O)NC(CC(N)=O)C(=O)NC2C(=O)NC3C(=O)NC(C(=O)NC(C(=O)O)c4cc(O)cc(O)c4-c4cc3ccc4O)C(OC3CC(C)(N)C(O)C(C)O3)c3ccc(cc3)Oc3cc2cc(c3OC2OC(CO)C(O)C(O)C2OC2CC(C)(NC(=O)[C@@H](N)Cc3ccccc3)C(O)C(C)O2)Oc2ccc(cc2Cl)C1O (some centres unmarked) [Compound 230] | 4 (≈ 2.35 µM) | 4 (≈ 2.35 µM) | >32 | >32 | 2 (≈ 1.17 µM) | >64 | 2 (≈ 1.17 µM) | >64
10 | CCCCCCCCOc1ccc(CNC(CCCN)C(=O)NC2(C)CC(OC3C(Oc4c5cc6cc4Oc4ccc(cc4Cl)C(O)C4NC(=O)C(NC(=O)C6NC(=O)C(CC(N)=O)NC(=O)C(NC(=O)C(CC(C)C)NC)C(O)c6ccc(c(Cl)c6)O5)c5ccc(O)c(c5)-c5c(O)cc(O)cc5C(C(=O)O)NC4=O)OC(CO)C(O)C3O)OC(C)C2O)cc1 (centres unmarked) [Compound 241] | 0.5 (≈ 0.281 µM) | 1 (≈ 0.561 µM) | 2 (≈ 1.12 µM) | 2 (≈ 1.12 µM) | 1 (≈ 0.561 µM) | 16 (≈ 8.98 µM) | 1 (≈ 0.561 µM) | 16 (≈ 8.98 µM)
11 | CCCCc1ccc(CN[C@@H](CCCN)C(=O)NC2(C)CC(OC3C(Oc4c5cc6cc4Oc4ccc(cc4Cl)C(O)C(NC(=O)C(CC(C)C)NC)C(=O)NC(CC(N)=O)C(=O)NC6C(=O)NC4C(=O)NC(C(=O)NC(C(=O)O)c6cc(O)cc(O)c6-c6cc4ccc6O)C(OC4CC(C)(N)C(O)C(C)O4)c4ccc(cc4)O5)OC(CO)C(O)C3O)OC(C)C2O)cc1 (some centres unmarked) [Compound 242] | 0.25 (≈ 0.137 µM) | 1 (≈ 0.55 µM) | 4 (≈ 2.2 µM) | 4 (≈ 2.2 µM) | 0.5 (≈ 0.275 µM) | 8 (≈ 4.4 µM) | 1 (≈ 0.55 µM) | 8 (≈ 4.4 µM)
12 | CNC(CC(C)C)C(=O)NC1C(=O)NC(CC(N)=O)C(=O)NC2C(=O)NC3C(=O)NC(C(=O)NC(C(=O)NC(C)C45CC6CC(CC(C6)C4)C5)c4cc(O)cc(O)c4-c4cc3ccc4O)C(OC3CC(C)(N)C(O)C(C)O3)c3ccc(cc3)Oc3cc2cc(c3OC2OC(CO)C(O)C(O)C2OC2CC(C)(N)C(O)C(C)O2)Oc2ccc(cc2Cl)C1O (centres unmarked) [Compound 262] | 0.5 (≈ 0.291 µM) | 1 (≈ 0.582 µM) | 4 (≈ 2.33 µM) | 2 (≈ 1.16 µM) | 0.5 (≈ 0.291 µM) | 16 (≈ 9.31 µM) | 1 (≈ 0.582 µM) | 16 (≈ 9.31 µM)
13 | CCCCc1ccc(CNCC(=O)NC2(C)CC(OC3C(Oc4c5cc6cc4Oc4ccc(cc4Cl)C(O)C(NC(=O)C(CC(C)C)NC)C(=O)NC(CC(N)=O)C(=O)NC6C(=O)NC4C(=O)NC(C(=O)NC(C(=O)NC6C7CC8CC(C7)CC6C8)c6cc(O)cc(O)c6-c6cc4ccc6O)C(OC4CC(C)(N)C(O)C(C)O4)c4ccc(cc4)O5)OC(CO)C(O)C3O)OC(C)C2O)cc1 (centres unmarked) [Compound 263] | 8 (≈ 4.22 µM) | 8 (≈ 4.22 µM) | 16 (≈ 8.45 µM) | 16 (≈ 8.45 µM) | 8 (≈ 4.22 µM) | 8 (≈ 4.22 µM) | 8 (≈ 4.22 µM) | 8 (≈ 4.22 µM)
